Calls of active or inactive are those of the source. No cut-off for these calls is given here.
Tests used:
[1] = Inhibition of bacterial Metallo-beta-lactamase IMP-1 using nitrocefin as substrate pre-incubated for 15 mins followed by substrate addition by microplate reader; parameters: species or system Bacteria
Escherichia coli [2] = test: Antibacterial activity against Escherichia coli KB366 expressing IMP-1 assessed as inhibition of bacterial growth at 100 ug in presence of meropenem incubated overnight by paper disk method; type: functional; conditions: read-out: IZ
Escherichia coli [3] = test: Antibacterial activity against Escherichia coli KB366 expressing IMP-1 assessed as inhibition of bacterial growth at 30 ug in presence of meropenem incubated overnight by paper disk method; type: functional; conditions: read-out: IZ
Escherichia coli [4] = test: Antibacterial activity against Escherichia coli KB366 expressing IMP-1 assessed as inhibition of bacterial growth at 10 ug in presence of meropenem incubated overnight by paper disk method; type: functional; conditions: read-out: IZ
Escherichia coli [5] = test: Antibacterial activity against Escherichia coli KB366 expressing IMP-1 assessed as inhibition of bacterial growth at 3 ug in presence of meropenem incubated overnight by paper disk method; type: functional; conditions: read-out: IZ
Escherichia coli [6] = test: Antibacterial activity against Escherichia coli KB366 expressing IMP-1 assessed as inhibition of bacterial growth at 1 ug in presence of meropenem incubated overnight by paper disk method; type: functional; conditions: read-out: IZ
Escherichia coli [7] = test: Antibacterial activity against Escherichia coli KB366 expressing IMP-1 assessed as inhibition of bacterial growth at 0.3 ug in presence of meropenem incubated overnight by paper disk method; type: functional; conditions: read-out: IZ
Escherichia coli [8] = test: Antibacterial activity against Escherichia coli KB366 expressing IMP-1 assessed as inhibition of bacterial growth at 0.1 ug in presence of meropenem incubated overnight by paper disk method; type: functional; conditions: read-out: IZ
Escherichia coli [9] = test: Antibacterial activity against Escherichia coli KB366 expressing IMP-1 assessed as inhibition of bacterial growth at 0.03 ug in presence of meropenem incubated overnight by paper disk method; type: functional; conditions: read-out: IZ
Escherichia coli [10] = test: Antibacterial activity against Escherichia coli KB366 expressing IMP-1 assessed as inhibition of bacterial growth at 0.01 ug in presence of meropenem incubated overnight by paper disk method; type: functional; conditions: dose 0.01 µg
Escherichia coli [11] = test: Antibacterial activity against Escherichia coli KB366 expressing IMP-1 assessed as inhibition of bacterial growth at 100 ug in absence of meropenem incubated overnight by paper disk method; type: functional, organism-based; conditions: dose 100.0 µg
Escherichia coli [12] = test: Antibacterial activity against Escherichia coli KB366 expressing IMP-1 assessed as inhibition of bacterial growth at 30 ug in absence of meropenem incubated overnight by paper disk method; type: functional, organism-based; conditions: dose 30.0 µg
Escherichia coli [13] = test: Antibacterial activity against Escherichia coli KB366 expressing IMP-1 assessed as inhibition of bacterial growth at 10 ug in absence of meropenem incubated overnight by paper disk method; type: functional, organism-based; conditions: dose 10.0 µg
Escherichia coli [14] = test: Antibacterial activity against Escherichia coli KB366 expressing IMP-1 assessed as inhibition of bacterial growth at 3 ug in absence of meropenem incubated overnight by paper disk method; type: functional, organism-based; conditions: dose 3.0 µg
Escherichia coli [15] = test: Antibacterial activity against Escherichia coli KB366 expressing IMP-1 assessed as inhibition of bacterial growth at 1 ug in absence of meropenem incubated overnight by paper disk method; type: functional, organism-based; conditions: dose 1.0 µg
Escherichia coli [16] = test: Antibacterial activity against Escherichia coli KB366 expressing IMP-1 assessed as inhibition of bacterial growth at 0.3 ug in absence of meropenem incubated overnight by paper disk method; type: functional, organism-based; conditions: dose 0.3 µg
Escherichia coli [17] = test: Antibacterial activity against Escherichia coli KB366 expressing IMP-1 assessed as inhibition of bacterial growth at 0.1 ug in absence of meropenem incubated overnight by paper disk method; type: functional, organism-based; conditions: dose 0.1 µg
Escherichia coli [18] = test: Antibacterial activity against Escherichia coli KB366 expressing IMP-1 assessed as inhibition of bacterial growth at 0.03 ug in absence of meropenem incubated overnight by paper disk method; type: functional, organism-based; conditions: dose 0.03 µg
Escherichia coli [19] = test: Antibacterial activity against Escherichia coli KB366 expressing IMP-1 assessed as inhibition of bacterial growth at 0.01 ug in absence of meropenem incubated overnight by paper disk method; type: functional, organism-based; conditions: dose 0.01 µg
Pseudomonas aeruginosa [20] = test: Antibacterial activity against Pseudomonas aeruginosa KB367 expressing IMP-1 assessed as inhibition of bacterial growth at 100 ug in presence of meropenem incubated overnight by paper disk method; type: functional; conditions: read-out: IZ
Pseudomonas aeruginosa [21] = test: Antibacterial activity against Pseudomonas aeruginosa KB367 expressing IMP-1 assessed as inhibition of bacterial growth at 30 ug in presence of meropenem incubated overnight by paper disk method; type: functional; conditions: read-out: IZ
Pseudomonas aeruginosa [22] = test: Antibacterial activity against Pseudomonas aeruginosa KB367 expressing IMP-1 assessed as inhibition of bacterial growth at 10 ug in presence of meropenem incubated overnight by paper disk method; type: functional; conditions: read-out: IZ
Pseudomonas aeruginosa [23] = test: Antibacterial activity against Pseudomonas aeruginosa KB367 expressing IMP-1 assessed as inhibition of bacterial growth at 3 ug in presence of meropenem incubated overnight by paper disk method; type: functional; conditions: read-out: IZ
Pseudomonas aeruginosa [24] = test: Antibacterial activity against Pseudomonas aeruginosa KB367 expressing IMP-1 assessed as inhibition of bacterial growth at 1 ug in presence of meropenem incubated overnight by paper disk method; type: functional; conditions: dose 1.0 µg
Pseudomonas aeruginosa [25] = test: Antibacterial activity against Pseudomonas aeruginosa KB367 expressing IMP-1 assessed as inhibition of bacterial growth at 0.3 ug in presence of meropenem incubated overnight by paper disk method; type: functional, organism-based; conditions: dose 0.3 µg
Pseudomonas aeruginosa [26] = test: Antibacterial activity against Pseudomonas aeruginosa KB367 expressing IMP-1 assessed as inhibition of bacterial growth at 0.1 ug in presence of meropenem incubated overnight by paper disk method; type: functional, organism-based; conditions: dose 0.1 µg
Pseudomonas aeruginosa [27] = test: Antibacterial activity against Pseudomonas aeruginosa KB367 expressing IMP-1 assessed as inhibition of bacterial growth at 0.03 ug in presence of meropenem incubated overnight by paper disk method; type: functional, organism-based; conditions: dose 0.03 µg
Pseudomonas aeruginosa [28] = test: Antibacterial activity against Pseudomonas aeruginosa KB367 expressing IMP-1 assessed as inhibition of bacterial growth at 0.01 ug in presence of meropenem incubated overnight by paper disk method; type: functional, organism-based; conditions: dose 0.01 µg
Pseudomonas aeruginosa [29] = test: Antibacterial activity against Pseudomonas aeruginosa KB367 expressing IMP-1 assessed as inhibition of bacterial growth at 100 ug in absence of meropenem incubated overnight by paper disk method; type: functional, organism-based; conditions: dose 100.0 µg
Pseudomonas aeruginosa [30] = test: Antibacterial activity against Pseudomonas aeruginosa KB367 expressing IMP-1 assessed as inhibition of bacterial growth at 30 ug in absence of meropenem incubated overnight by paper disk method; type: functional, organism-based; conditions: dose 30.0 µg
Pseudomonas aeruginosa [31] = test: Antibacterial activity against Pseudomonas aeruginosa KB367 expressing IMP-1 assessed as inhibition of bacterial growth at 10 ug in absence of meropenem incubated overnight by paper disk method; type: functional, organism-based; conditions: dose 10.0 µg
Pseudomonas aeruginosa [32] = test: Antibacterial activity against Pseudomonas aeruginosa KB367 expressing IMP-1 assessed as inhibition of bacterial growth at 3 ug in absence of meropenem incubated overnight by paper disk method; type: functional, organism-based; conditions: dose 3.0 µg
Pseudomonas aeruginosa [33] = test: Antibacterial activity against Pseudomonas aeruginosa KB367 expressing IMP-1 assessed as inhibition of bacterial growth at 1 ug in absence of meropenem incubated overnight by paper disk method; type: functional, organism-based; conditions: dose 1.0 µg
Pseudomonas aeruginosa [34] = test: Antibacterial activity against Pseudomonas aeruginosa KB367 expressing IMP-1 assessed as inhibition of bacterial growth at 0.3 ug in absence of meropenem incubated overnight by paper disk method; type: functional, organism-based; conditions: dose 0.3 µg
Pseudomonas aeruginosa [35] = test: Antibacterial activity against Pseudomonas aeruginosa KB367 expressing IMP-1 assessed as inhibition of bacterial growth at 0.1 ug in absence of meropenem incubated overnight by paper disk method; type: functional, organism-based; conditions: dose 0.1 µg
Pseudomonas aeruginosa [36] = test: Antibacterial activity against Pseudomonas aeruginosa KB367 expressing IMP-1 assessed as inhibition of bacterial growth at 0.03 ug in absence of meropenem incubated overnight by paper disk method; type: functional, organism-based; conditions: dose 0.03 µg
Pseudomonas aeruginosa [37] = test: Antibacterial activity against Pseudomonas aeruginosa KB367 expressing IMP-1 assessed as inhibition of bacterial growth at 0.01 ug in absence of meropenem incubated overnight by paper disk method; type: functional, organism-based; conditions: dose 0.01 µg

CC/C=C/C(C(=O)[O-])=C(\CCC)C(=O)[O-].[Na+].[Na+]
IC50 [1]: 2.2 µg/mL
zone of inhibition at 100 µg/disc (Escherichia coli [2]): 30 mm
zone of inhibition at 30 µg/disc (Escherichia coli [3]): 28 mm
zone of inhibition at 10 µg/disc (Escherichia coli [4]): 26 mm
zone of inhibition at 3 µg/disc (Escherichia coli [5]): 21 mm
zone of inhibition at 1 µg/disc (Escherichia coli [6]): 19 mm
zone of inhibition at 0.3 µg/disc (Escherichia coli [7]): 16 mm
zone of inhibition at 0.1 µg/disc (Escherichia coli [8]): 13 mm
zone of inhibition at 0.03 µg/disc (Escherichia coli [9]): 11 mm
inhibition zone (IZ) (Escherichia coli [10]): inactive
inhibition zone (IZ) (Escherichia coli [11]): inactive
inhibition zone (IZ) (Escherichia coli [12]): inactive
inhibition zone (IZ) (Escherichia coli [13]): inactive
inhibition zone (IZ) (Escherichia coli [14]): inactive
inhibition zone (IZ) (Escherichia coli [15]): inactive
inhibition zone (IZ) (Escherichia coli [16]): inactive
inhibition zone (IZ) (Escherichia coli [17]): inactive
inhibition zone (IZ) (Escherichia coli [18]): inactive
inhibition zone (IZ) (Escherichia coli [19]): inactive
zone of inhibition at 100 µg/disc (Pseudomonas aeruginosa [20]): 23 mm
zone of inhibition at 30 µg/disc (Pseudomonas aeruginosa [21]): 19 mm
zone of inhibition at 10 µg/disc (Pseudomonas aeruginosa [22]): 14 mm
zone of inhibition at 3 µg/disc (Pseudomonas aeruginosa [23]): 7 mm
inhibition zone (IZ) (Pseudomonas aeruginosa [24]): inactive
inhibition zone (IZ) (Pseudomonas aeruginosa [25]): inactive
inhibition zone (IZ) (Pseudomonas aeruginosa [26]): inactive
inhibition zone (IZ) (Pseudomonas aeruginosa [27]): inactive
inhibition zone (IZ) (Pseudomonas aeruginosa [28]): inactive
inhibition zone (IZ) (Pseudomonas aeruginosa [29]): inactive
inhibition zone (IZ) (Pseudomonas aeruginosa [30]): inactive
inhibition zone (IZ) (Pseudomonas aeruginosa [31]): inactive
inhibition zone (IZ) (Pseudomonas aeruginosa [32]): inactive
inhibition zone (IZ) (Pseudomonas aeruginosa [33]): inactive
inhibition zone (IZ) (Pseudomonas aeruginosa [34]): inactive
inhibition zone (IZ) (Pseudomonas aeruginosa [35]): inactive
inhibition zone (IZ) (Pseudomonas aeruginosa [36]): inactive
inhibition zone (IZ) (Pseudomonas aeruginosa [37]): inactive
